# Test results: patent US6538014B1, “Process for the aggrochemical treatment of rangelands” (Bayer CropScience, Inc., priority 1992, dated 2003)
# Key:
# Format in all cases: in vivo
# Melanoplus sanguinipes = experiment: Caged grassland treatment, mortality of grasshoppers; conditions: for Effectiveness (%) against the grasshopper Melanoplus Sanquinipes, Persistence of Action 7 DAT / Effectiveness (%) against the grasshopper Melanoplus Sanquinipes, Persistence of Action 15 DAT / Effectiveness (%) against the grasshopper Melanoplus Sanquinipes, Persistence of Action 28 DAT: infestation renewed 2 days before
# Experimental: A zone of grassland is treated under controlled conditions, using cages to limit the space of movement of the insects. This zone is infested at a rate of 40 grasshoppers (Melanoplus sanguinipes) per m^2. For experimental purposes, the infestation is renewed 2 days before each observation of the effectiveness of the products, without performing a new insecticide treatment. The results are observed by performing mortality measurements (=percentage of grasshoppers killed). A remarkable persistence of action is observed.
# Chortoicetes terminifera = experiment: Grassland treatment, mortality of locusts; conditions: for Effectiveness (%) against the locust Chortoicetes terminifera, Persistence of action 5 DAT / Effectiveness (%) against the locust Chortoicetes terminifera, Persistence of action 10 DAT / Effectiveness (%) against the locust Chortoicetes terminifera, Persistence of action 20 DAT / Effectiveness (%) against the locust Chortoicetes terminifera, Persistence of action 30 DAT: infestation renewed 2 days before
# Experimental: (§1) A zone of grassland infested at a rate of 40 locusts (Chortoicetes terminifera) per m2 is treated, and the infestation is renewed 2 days before each effectiveness measurement. The results are observed by performing mortality measurements (=percentage of locusts killed). A remarkable persistence of action is observed.
# Schistocerca gregaria = experiment: Grassland treatment, mortality of locusts; conditions: for Effectiveness (%) against the locust (Schistocerca gregaria), Persistence of action 7 DAT / Effectiveness (%) against the locust (Schistocerca gregaria), Persistence of action 14 DAT / Effectiveness (%) against the locust (Schistocerca gregaria), Persistence of action 18 DAT: infestation renewed 2 days before
# Excerpt: as §1, with “One treats a zone” for “A zone”, “locusts (Schistocerca gregaria)” for “locusts (Chortoicetes terminifera)”, “per m^2. For experimental purposes,” for “per m2 is treated, and”
smiles,measurement,setting,value
"N#Cc1nn(-c2c(Cl)cc(C(F)(F)F)cc2Cl)c(N)c1[S+]([O-])C(F)(F)F (centres unmarked) [Product A, 1-[2,6-dichloro-4-CF3-phenyl)-3-cyano-4-CF3SO-5-NH2-pyrazole]","Effectiveness (%) against the grasshopper Melanoplus Sanquinipes, Immediate Action 1 DAT",Melanoplus sanguinipes; 6.2 g Product A per hectare,87%
same,"Effectiveness (%) against the grasshopper Melanoplus Sanquinipes, Persistence of Action 7 DAT",Melanoplus sanguinipes; 6.2 g Product A per hectare,98%
same,"Effectiveness (%) against the grasshopper Melanoplus Sanquinipes, Persistence of Action 15 DAT",Melanoplus sanguinipes; 6.2 g Product A per hectare,93%
same,"Effectiveness (%) against the grasshopper Melanoplus Sanquinipes, Persistence of Action 28 DAT",Melanoplus sanguinipes; 6.2 g Product A per hectare,38%
same,"Effectiveness (%) against the grasshopper Melanoplus Sanquinipes, Immediate Action 1 DAT",Melanoplus sanguinipes; 12.5 g Product A per hectare,93%
same,"Effectiveness (%) against the grasshopper Melanoplus Sanquinipes, Persistence of Action 7 DAT",Melanoplus sanguinipes; 12.5 g Product A per hectare,100%
same,"Effectiveness (%) against the grasshopper Melanoplus Sanquinipes, Persistence of Action 15 DAT",Melanoplus sanguinipes; 12.5 g Product A per hectare,100%
same,"Effectiveness (%) against the grasshopper Melanoplus Sanquinipes, Persistence of Action 28 DAT",Melanoplus sanguinipes; 12.5 g Product A per hectare,69%
same,"Effectiveness (%) against the grasshopper Melanoplus Sanquinipes, Immediate Action 1 DAT",Melanoplus sanguinipes; 25 g Product A per hectare,98%
same,"Effectiveness (%) against the grasshopper Melanoplus Sanquinipes, Persistence of Action 7 DAT",Melanoplus sanguinipes; 25 g Product A per hectare,100%
same,"Effectiveness (%) against the grasshopper Melanoplus Sanquinipes, Persistence of Action 15 DAT",Melanoplus sanguinipes; 25 g Product A per hectare,100%
same,"Effectiveness (%) against the grasshopper Melanoplus Sanquinipes, Persistence of Action 28 DAT",Melanoplus sanguinipes; 25 g Product A per hectare,93%
same,"Effectiveness (%) against the locust Chortoicetes terminifera, Immediate Action 1 DAT Adults",Chortoicetes terminifera; 3.1 g product A per hectare,58%
same,"Effectiveness (%) against the locust Chortoicetes terminifera, Immediate Action 1 DAT Nymphs",Chortoicetes terminifera; 3.1 g product A per hectare,70%
same,"Effectiveness (%) against the locust Chortoicetes terminifera, Persistence of action 5 DAT",Chortoicetes terminifera; 3.1 g product A per hectare,96%
same,"Effectiveness (%) against the locust Chortoicetes terminifera, Persistence of action 10 DAT",Chortoicetes terminifera; 3.1 g product A per hectare,90%
same,"Effectiveness (%) against the locust Chortoicetes terminifera, Persistence of action 20 DAT",Chortoicetes terminifera; 3.1 g product A per hectare,74%
same,"Effectiveness (%) against the locust Chortoicetes terminifera, Persistence of action 30 DAT",Chortoicetes terminifera; 3.1 g product A per hectare,55%
same,"Effectiveness (%) against the locust Chortoicetes terminifera, Immediate Action 1 DAT Adults",Chortoicetes terminifera; 6.25 g product A per hectare,93%
same,"Effectiveness (%) against the locust Chortoicetes terminifera, Immediate Action 1 DAT Nymphs",Chortoicetes terminifera; 6.25 g product A per hectare,100%
same,"Effectiveness (%) against the locust Chortoicetes terminifera, Persistence of action 5 DAT",Chortoicetes terminifera; 6.25 g product A per hectare,100%
same,"Effectiveness (%) against the locust Chortoicetes terminifera, Persistence of action 10 DAT",Chortoicetes terminifera; 6.25 g product A per hectare,98%
same,"Effectiveness (%) against the locust Chortoicetes terminifera, Persistence of action 20 DAT",Chortoicetes terminifera; 6.25 g product A per hectare,93%
same,"Effectiveness (%) against the locust Chortoicetes terminifera, Persistence of action 30 DAT",Chortoicetes terminifera; 6.25 g product A per hectare,80%
same,"Effectiveness (%) against the locust Chortoicetes terminifera, Immediate Action 1 DAT Adults",Chortoicetes terminifera; 12.5 g product A per hectare,100%
same,"Effectiveness (%) against the locust Chortoicetes terminifera, Immediate Action 1 DAT Nymphs",Chortoicetes terminifera; 12.5 g product A per hectare,100%
same,"Effectiveness (%) against the locust Chortoicetes terminifera, Persistence of action 5 DAT",Chortoicetes terminifera; 12.5 g product A per hectare,100%
same,"Effectiveness (%) against the locust Chortoicetes terminifera, Persistence of action 10 DAT",Chortoicetes terminifera; 12.5 g product A per hectare,100%
same,"Effectiveness (%) against the locust Chortoicetes terminifera, Persistence of action 20 DAT",Chortoicetes terminifera; 12.5 g product A per hectare,96%
same,"Effectiveness (%) against the locust Chortoicetes terminifera, Persistence of action 30 DAT",Chortoicetes terminifera; 12.5 g product A per hectare,82%
same,"Effectiveness (%) against the locust Chortoicetes terminifera, Immediate Action 1 DAT Adults",Chortoicetes terminifera; 25 g product A per hectare,100%
same,"Effectiveness (%) against the locust Chortoicetes terminifera, Immediate Action 1 DAT Nymphs",Chortoicetes terminifera; 25 g product A per hectare,100%
same,"Effectiveness (%) against the locust Chortoicetes terminifera, Persistence of action 5 DAT",Chortoicetes terminifera; 25 g product A per hectare,100%
same,"Effectiveness (%) against the locust Chortoicetes terminifera, Persistence of action 10 DAT",Chortoicetes terminifera; 25 g product A per hectare,100%
same,"Effectiveness (%) against the locust Chortoicetes terminifera, Persistence of action 20 DAT",Chortoicetes terminifera; 25 g product A per hectare,100%
same,"Effectiveness (%) against the locust Chortoicetes terminifera, Persistence of action 30 DAT",Chortoicetes terminifera; 25 g product A per hectare,96%
same,"Effectiveness (%) against the locust (Schistocerca gregaria), Immediate Action 1 DAT",Schistocerca gregaria; 2.5 g product A per hectare,58%
same,"Effectiveness (%) against the locust (Schistocerca gregaria), Immediate Action 2 DAT",Schistocerca gregaria; 2.5 g product A per hectare,72%
same,"Effectiveness (%) against the locust (Schistocerca gregaria), Persistence of action 7 DAT",Schistocerca gregaria; 2.5 g product A per hectare,88%
same,"Effectiveness (%) against the locust (Schistocerca gregaria), Persistence of action 14 DAT",Schistocerca gregaria; 2.5 g product A per hectare,72%
same,"Effectiveness (%) against the locust (Schistocerca gregaria), Persistence of action 18 DAT",Schistocerca gregaria; 2.5 g product A per hectare,56%
same,"Effectiveness (%) against the locust (Schistocerca gregaria), Immediate Action 1 DAT",Schistocerca gregaria; 5 g product A per hectare,82%
same,"Effectiveness (%) against the locust (Schistocerca gregaria), Immediate Action 2 DAT",Schistocerca gregaria; 5 g product A per hectare,93%
same,"Effectiveness (%) against the locust (Schistocerca gregaria), Persistence of action 7 DAT",Schistocerca gregaria; 5 g product A per hectare,100%
same,"Effectiveness (%) against the locust (Schistocerca gregaria), Persistence of action 14 DAT",Schistocerca gregaria; 5 g product A per hectare,93%
same,"Effectiveness (%) against the locust (Schistocerca gregaria), Persistence of action 18 DAT",Schistocerca gregaria; 5 g product A per hectare,89%
same,"Effectiveness (%) against the locust (Schistocerca gregaria), Immediate Action 1 DAT",Schistocerca gregaria; 10 g product A per hectare,96%
same,"Effectiveness (%) against the locust (Schistocerca gregaria), Immediate Action 2 DAT",Schistocerca gregaria; 10 g product A per hectare,100%
same,"Effectiveness (%) against the locust (Schistocerca gregaria), Persistence of action 7 DAT",Schistocerca gregaria; 10 g product A per hectare,100%
same,"Effectiveness (%) against the locust (Schistocerca gregaria), Persistence of action 14 DAT",Schistocerca gregaria; 10 g product A per hectare,98%
same,"Effectiveness (%) against the locust (Schistocerca gregaria), Persistence of action 18 DAT",Schistocerca gregaria; 10 g product A per hectare,92%
same,"Effectiveness (%) against the locust (Schistocerca gregaria), Immediate Action 1 DAT",Schistocerca gregaria; 20 g product A per hectare,100%
same,"Effectiveness (%) against the locust (Schistocerca gregaria), Immediate Action 2 DAT",Schistocerca gregaria; 20 g product A per hectare,100%
same,"Effectiveness (%) against the locust (Schistocerca gregaria), Persistence of action 7 DAT",Schistocerca gregaria; 20 g product A per hectare,100%
same,"Effectiveness (%) against the locust (Schistocerca gregaria), Persistence of action 14 DAT",Schistocerca gregaria; 20 g product A per hectare,100%
same,"Effectiveness (%) against the locust (Schistocerca gregaria), Persistence of action 18 DAT",Schistocerca gregaria; 20 g product A per hectare,98%
